Source: PubChem BioAssay (NCI)
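Protocol summary: plate cells (96-well), add compound at 5 concentrations, incubate 48 h, interpolate endpoints linearly. Here, GI50 denotes the concentration required for 50% inhibition of growth. At the TGI there is no net growth.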

Legend:
Assay in all cases: inhibition of tumour cell growth, NCI panel, 48 h
SF-295 CNS = test system: SF-295 CNS
OVCAR-5 ovarian = test system: OVCAR-5 ovarian
BT-549 breast = test system: BT-549 breast
A549 NSCLC = test system: A549 NSCLC
CCRF-CEM leukemia = test system: CCRF-CEM leukemia
NCI/ADR-RES ovarian = test system: NCI/ADR-RES ovarian
SK-MEL-28 melanoma = test system: SK-MEL-28 melanoma
UACC-62 melanoma = test system: UACC-62 melanoma
HCT-116 colon = test system: HCT-116 colon
K-562 leukemia = test system: K-562 leukemia

| Structure (SMILES) | GI50 (SF-295 CNS) | TGI (SF-295 CNS) | GI50 (OVCAR-5 ovarian) | TGI (OVCAR-5 ovarian) | GI50 (BT-549 breast) | TGI (BT-549 breast) | GI50 (A549 NSCLC) | TGI (A549 NSCLC) | GI50 (CCRF-CEM leukemia) | TGI (CCRF-CEM leukemia) | GI50 (NCI/ADR-RES ovarian) | TGI (NCI/ADR-RES ovarian) | GI50 (SK-MEL-28 melanoma) | TGI (SK-MEL-28 melanoma) | GI50 (UACC-62 melanoma) | TGI (UACC-62 melanoma) | TGI (HCT-116 colon) | GI50 (K-562 leukemia) | TGI (K-562 leukemia) | GI50 (HCT-116 colon) |
| --- | --- | --- | --- | --- | --- | --- | --- | --- | --- | --- | --- | --- | --- | --- | --- | --- | --- | --- | --- | --- |
| CCCCCCCC/C=C/CCCCCCCCC1=NCCN1CCO | 1.93 µM | 4.05 µM | 10.8 µM | 24 µM | 11.3 µM | 40.2 µM | 2.67 µM | 7.41 µM | 1.91 µM | 4.96 µM | 8.44 µM | 38.4 µM | 10.5 µM | 24.4 µM | 3.05 µM | 11 µM | – | – | – | – |
| NC(=O)C1=NNc2ccccc2C(=O)N1c1ccccc1 | – | > 100 µM | – | > 100 µM | – | > 100 µM | – | > 100 µM | – | > 100 µM | – | > 100 µM | – | > 100 µM | – | > 100 µM | > 100 µM | – | – | – |
| O=C(OCc1ccccc1)N1CCN(/[N+]([O-])=N/Oc2ccc([N+](=O)[O-])cc2[N+](=O)[O-])CC1 | 21.5 µM | 49.4 µM | 6.43 µM | 67.6 µM | 8.15 µM | 23.4 µM | 21.5 µM | 56 µM | – | – | 5.25 µM | > 100 µM | 13.2 µM | 31.1 µM | 6.72 µM | 20.8 µM | 7.55 µM | 4.07 µM | > 100 µM | 2.15 µM |
| CS(=O)CCCCCN=C=S (stereo not given) | 17.1 µM | 31.4 µM | 10.6 µM | 25.5 µM | 3.07 µM | 11.5 µM | 7.52 µM | 24.2 µM | 4.1 µM | 16.3 µM | 4.72 µM | 22 µM | 4.07 µM | 16.8 µM | 2.93 µM | 12.5 µM | 10.2 µM | – | – | 2.86 µM |
| CSc1cnn(CCC#N)c(=O)n1 | – | > 100 µM | – | > 100 µM | – | > 100 µM | – | > 100 µM | – | > 100 µM | – | – | – | > 100 µM | – | > 100 µM | > 100 µM | – | > 100 µM | – |
| Cc1ccc(NC(=O)NC(=O)c2ccc([N+](=O)[O-])cc2[N+](=O)[O-])cc1Oc1ncc(Cl)cn1 | – | 43.5 µM | – | – | – | 32.7 µM | – | > 40.2 µM | – | > 62.3 µM | – | – | – | 24.1 µM | – | 21 µM | 4.78 µM | – | > 37.4 µM | – |
| NC(N)=NS(=O)(=O)c1ccc(NCc2c3ccccc3nc3ccccc23)cc1 | – | 22 µM | – | > 100 µM | – | 34.3 µM | – | > 100 µM | – | 9.03 µM | – | – | – | > 97.1 µM | – | 35.2 µM | 56.2 µM | – | > 93.6 µM | – |
| CCN(CC)CCCNc1cccc2c(SCc3ccccc3)ccnc12 | 1.8 µM | 3.48 µM | 2 µM | 3.76 µM | 1.62 µM | 3.35 µM | 1.73 µM | 3.33 µM | 0.179 µM | 3 µM | 1.96 µM | 5.6 µM | 1.99 µM | 3.5 µM | 1.74 µM | 3.37 µM | 2.95 µM | – | – | 1.6 µM |
